The record followed here is ChEMBL document CHEMBL1127198, “Identification of antibody mimotopes containing non-natural amino acids by recombinant and synthetic peptide library affinity selection methods” (Bioorg Med Chem Lett, 1993).

A short description of test [1]: Binding inhibitory activity of compound was evaluated against bacteriophage anti-gp120 monoclonal antibody by competition ELISA assay.
The nature of test [2]: Loss of affinity of compound was determined for bacteriophage anti-gp120 monoclonal antibody by competition ELISA assay; 16 fold loss in affinity was observed.
Test [3] can be described thus: Loss of affinity of compound was determined for bacteriophage anti-gp120 monoclonal antibody by competition ELISA assay; 10 fold loss in affinity was observed.
Test [4] in a line: Loss of affinity of compound was determined for bacteriophage anti-gp120 monoclonal antibody by competition ELISA assay; 3 fold loss in affinity was observed.

In test [1], H-ESTAPM-OH returned an IC50 of 10 µM. In test [2], this substance returned a Loss of affinity of 16. In the case of H-EATRPM-OH, the IC50 in test [1] came to 6.3 µM. The substance further came in with a Loss of affinity in test [3] of 10. For H-ESTRPM-OH, in test [1], the IC50 worked out at 0.63 µM. On the same count and under the same terms, the value for H-ESTRAM-OH was 0.63 µM.

In test [1], H-ESARPM-OH showed an IC50 of 6.3 µM. In test [3], the Loss of affinity was 10.

Take H-ESTRPA-OH: in test [1], the IC50 was 10 µM. This substance returned a Loss of affinity in test [2] of 16. H-ASTRPM-OH showed an IC50 in test [1] of 1.8 µM. This substance had a Loss of affinity in test [4] of 3.
